Laboratory results published in US11013817B2, “Nanoparticles for drug delivery to treat bone disease” (The Cleveland Clinic Foundation, priority 2016, dated 2021).

Tests used:
[1] = Solid state solubility of PTX and TXT in polymers (phase separation in cast films); format: physicochemical; set-up: key: +ve: Phase separation; −ve: No phase separation
Excerpt: For this example, polymer and drug solutions in chloroform at different % of drug to polymer were casted into films on glass slides. Following solvent evaporation of chloroform in a chemical hood overnight, the casted films were observed under a light microscope. Phase separation was clearly evident from crystallization of the drug in the polymer film whereas the films were homogeneous when there was no phase separation.

PC-3 cells = test: Cytotoxicity of TXT and TXT-NPs in PC-3 cells; format: cell-based; details: for IC50 / IC90: Homo sapiens
Excerpt: (§1) In order to confirm the efficacy of TXT NPs, we determined IC50 of the drug and drug encapsulated in NPs in PC-3 and DU145 cells.

DU145 cells = test: Cytotoxicity of TXT and TXT-NPs in DU145 cells; format: cell-based; details: DU145, 5 day
Excerpt: as §1

## CC(=O)O[C@@]12CO[C@@H]1C[C@H](O)[C@@]1(C)C(=O)[C@H](O)C3=C(C)[C@@H](OC(=O)[C@H](O)[C@@H](NC(=O)OC(C)(C)C)c4ccccc4)C[C@@](O)([C@@H](OC(=O)c4ccccc4)[C@H]21)C3(C)C [Docetaxel, (2R,3S)-N-carboxy-3-phenylisoserine, N-tert-butyl ester, 13-ester with 5b-20-epoxy-12a,4,7b,10b,13a-hexahydroxytax-11-en-9-one 4-acetate 2-benzoate, trihydrate]
[1]; drug 1% w/w, polymer inherent viscosity 0.16 dL/g, Lactide/Glycolide 50/50
  Phase Separation: −
[1]; drug 1% w/w, polymer inherent viscosity 0.18 dL/g, Lactide/Glycolide 75/25
  Phase Separation: +
[1]; drug 1% w/w, polymer inherent viscosity 0.26-0.54 dL/g, Lactide/Glycolide 50/50, Ester Terminated
  Phase Separation: +
[1]; drug 1% w/w, polymer inherent viscosity 0.39 dL/g, Lactide/Glycolide 50/50
  Phase Separation: −
[1]; drug 1% w/w, polymer inherent viscosity 0.55-0.75 dL/g, Lactide/Glycolide 50/50, Carbohydrate end Group
  Phase Separation: +
[1]; drug 1% w/w, polymer inherent viscosity 0.63 dL/g, Lactide/Glycolide 85/15
  Phase Separation: +
[1]; drug 1% w/w, polymer inherent viscosity 0.64 dL/g, Lactide/Glycolide 65/35
  Phase Separation: +
[1]; drug 1% w/w, polymer inherent viscosity 0.64 dL/g, Lactide/Glycolide 75/25
  Phase Separation: +
[1]; drug 1% w/w, polymer inherent viscosity 0.67 dL/g, Lactide/Glycolide 65/35
  Phase Separation: −
[1]; drug 1% w/w, polymer inherent viscosity 0.69 dL/g, Lactide/Glycolide 50/50 (first of two such lines, r12)
  Phase Separation: −
[1]; drug 1% w/w, polymer inherent viscosity 0.69 dL/g, Lactide/Glycolide 50/50 (second of two such lines, r13)
  Phase Separation: +
[1]; drug 1% w/w, polymer inherent viscosity 0.76-0.94 dL/g, Lactide/Glycolide 50/50
  Phase Separation: +
[1]; drug 1% w/w, polymer inherent viscosity 0.87 dL/g, Lactide/Glycolide 50/50
  Phase Separation: +
[1]; drug 1% w/w, polymer inherent viscosity 0.95-1.20 dL/g, Lactide/Glycolide 50/50
  Phase Separation: −
[1]; drug 1% w/w, polymer inherent viscosity 1.15 dL/g, Lactide/Glycolide 50/50
  Phase Separation: +
[1]; drug 1% w/w, polymer inherent viscosity 1.24 dL/g, Lactide/Glycolide 50/50
  Phase Separation: +
[1]; drug 5% w/w, polymer inherent viscosity 0.16 dL/g, Lactide/Glycolide 50/50
  Phase Separation: −
[1]; drug 5% w/w, polymer inherent viscosity 0.18 dL/g, Lactide/Glycolide 75/25
  Phase Separation: +
[1]; drug 5% w/w, polymer inherent viscosity 0.26-0.54 dL/g, Lactide/Glycolide 50/50, Ester Terminated
  Phase Separation: +
[1]; drug 5% w/w, polymer inherent viscosity 0.39 dL/g, Lactide/Glycolide 50/50
  Phase Separation: −
[1]; drug 5% w/w, polymer inherent viscosity 0.55-0.75 dL/g, Lactide/Glycolide 50/50, Carbohydrate end Group
  Phase Separation: +
[1]; drug 5% w/w, polymer inherent viscosity 0.63 dL/g, Lactide/Glycolide 85/15
  Phase Separation: +
[1]; drug 5% w/w, polymer inherent viscosity 0.64 dL/g, Lactide/Glycolide 65/35
  Phase Separation: +
[1]; drug 5% w/w, polymer inherent viscosity 0.64 dL/g, Lactide/Glycolide 75/25
  Phase Separation: +
[1]; drug 5% w/w, polymer inherent viscosity 0.67 dL/g, Lactide/Glycolide 65/35
  Phase Separation: +
[1]; drug 5% w/w, polymer inherent viscosity 0.69 dL/g, Lactide/Glycolide 50/50 (first of two such lines, r12)
  Phase Separation: −
[1]; drug 5% w/w, polymer inherent viscosity 0.69 dL/g, Lactide/Glycolide 50/50 (second of two such lines, r13)
  Phase Separation: +
[1]; drug 5% w/w, polymer inherent viscosity 0.76-0.94 dL/g, Lactide/Glycolide 50/50
  Phase Separation: +
[1]; drug 5% w/w, polymer inherent viscosity 0.87 dL/g, Lactide/Glycolide 50/50
  Phase Separation: +
[1]; drug 5% w/w, polymer inherent viscosity 0.95-1.20 dL/g, Lactide/Glycolide 50/50
  Phase Separation: −
[1]; drug 5% w/w, polymer inherent viscosity 1.15 dL/g, Lactide/Glycolide 50/50
  Phase Separation: +
[1]; drug 5% w/w, polymer inherent viscosity 1.24 dL/g, Lactide/Glycolide 50/50
  Phase Separation: +
[1]; drug 10% w/w, polymer inherent viscosity 0.16 dL/g, Lactide/Glycolide 50/50
  Phase Separation: −
[1]; drug 10% w/w, polymer inherent viscosity 0.18 dL/g, Lactide/Glycolide 75/25
  Phase Separation: +
[1]; drug 10% w/w, polymer inherent viscosity 0.26-0.54 dL/g, Lactide/Glycolide 50/50, Ester Terminated
  Phase Separation: +
[1]; drug 10% w/w, polymer inherent viscosity 0.39 dL/g, Lactide/Glycolide 50/50
  Phase Separation: −
[1]; drug 10% w/w, polymer inherent viscosity 0.55-0.75 dL/g, Lactide/Glycolide 50/50, Carbohydrate end Group
  Phase Separation: +
[1]; drug 10% w/w, polymer inherent viscosity 0.63 dL/g, Lactide/Glycolide 85/15
  Phase Separation: +
[1]; drug 10% w/w, polymer inherent viscosity 0.64 dL/g, Lactide/Glycolide 65/35
  Phase Separation: +
[1]; drug 10% w/w, polymer inherent viscosity 0.64 dL/g, Lactide/Glycolide 75/25
  Phase Separation: +
[1]; drug 10% w/w, polymer inherent viscosity 0.67 dL/g, Lactide/Glycolide 65/35
  Phase Separation: +
[1]; drug 10% w/w, polymer inherent viscosity 0.69 dL/g, Lactide/Glycolide 50/50 (first of two such lines, r12)
  Phase Separation: −
[1]; drug 10% w/w, polymer inherent viscosity 0.69 dL/g, Lactide/Glycolide 50/50 (second of two such lines, r13)
  Phase Separation: +
[1]; drug 10% w/w, polymer inherent viscosity 0.76-0.94 dL/g, Lactide/Glycolide 50/50
  Phase Separation: +
[1]; drug 10% w/w, polymer inherent viscosity 0.87 dL/g, Lactide/Glycolide 50/50
  Phase Separation: +
[1]; drug 10% w/w, polymer inherent viscosity 0.95-1.20 dL/g, Lactide/Glycolide 50/50
  Phase Separation: −
[1]; drug 10% w/w, polymer inherent viscosity 1.15 dL/g, Lactide/Glycolide 50/50
  Phase Separation: +
[1]; drug 10% w/w, polymer inherent viscosity 1.24 dL/g, Lactide/Glycolide 50/50
  Phase Separation: +
[1]; drug 15% w/w, polymer inherent viscosity 0.16 dL/g, Lactide/Glycolide 50/50
  Phase Separation: −
[1]; drug 15% w/w, polymer inherent viscosity 0.18 dL/g, Lactide/Glycolide 75/25
  Phase Separation: +
[1]; drug 15% w/w, polymer inherent viscosity 0.26-0.54 dL/g, Lactide/Glycolide 50/50, Ester Terminated
  Phase Separation: +
[1]; drug 15% w/w, polymer inherent viscosity 0.39 dL/g, Lactide/Glycolide 50/50
  Phase Separation: −
[1]; drug 15% w/w, polymer inherent viscosity 0.55-0.75 dL/g, Lactide/Glycolide 50/50, Carbohydrate end Group
  Phase Separation: +
[1]; drug 15% w/w, polymer inherent viscosity 0.63 dL/g, Lactide/Glycolide 85/15
  Phase Separation: +
[1]; drug 15% w/w, polymer inherent viscosity 0.64 dL/g, Lactide/Glycolide 65/35
  Phase Separation: +
[1]; drug 15% w/w, polymer inherent viscosity 0.64 dL/g, Lactide/Glycolide 75/25
  Phase Separation: +
[1]; drug 15% w/w, polymer inherent viscosity 0.67 dL/g, Lactide/Glycolide 65/35
  Phase Separation: +
[1]; drug 15% w/w, polymer inherent viscosity 0.69 dL/g, Lactide/Glycolide 50/50 (first of two such lines, r12)
  Phase Separation: −
[1]; drug 15% w/w, polymer inherent viscosity 0.69 dL/g, Lactide/Glycolide 50/50 (second of two such lines, r13)
  Phase Separation: +
[1]; drug 15% w/w, polymer inherent viscosity 0.76-0.94 dL/g, Lactide/Glycolide 50/50
  Phase Separation: +
[1]; drug 15% w/w, polymer inherent viscosity 0.87 dL/g, Lactide/Glycolide 50/50
  Phase Separation: +
[1]; drug 15% w/w, polymer inherent viscosity 0.95-1.20 dL/g, Lactide/Glycolide 50/50
  Phase Separation: −
[1]; drug 15% w/w, polymer inherent viscosity 1.15 dL/g, Lactide/Glycolide 50/50
  Phase Separation: +
[1]; drug 15% w/w, polymer inherent viscosity 1.24 dL/g, Lactide/Glycolide 50/50
  Phase Separation: +
[1]; drug 20% w/w, polymer inherent viscosity 0.16 dL/g, Lactide/Glycolide 50/50
  Phase Separation: −
[1]; drug 20% w/w, polymer inherent viscosity 0.18 dL/g, Lactide/Glycolide 75/25
  Phase Separation: +
[1]; drug 20% w/w, polymer inherent viscosity 0.26-0.54 dL/g, Lactide/Glycolide 50/50, Ester Terminated
  Phase Separation: +
[1]; drug 20% w/w, polymer inherent viscosity 0.39 dL/g, Lactide/Glycolide 50/50
  Phase Separation: −
[1]; drug 20% w/w, polymer inherent viscosity 0.55-0.75 dL/g, Lactide/Glycolide 50/50, Carbohydrate end Group
  Phase Separation: +
[1]; drug 20% w/w, polymer inherent viscosity 0.63 dL/g, Lactide/Glycolide 85/15
  Phase Separation: +
[1]; drug 20% w/w, polymer inherent viscosity 0.64 dL/g, Lactide/Glycolide 65/35
  Phase Separation: +
[1]; drug 20% w/w, polymer inherent viscosity 0.64 dL/g, Lactide/Glycolide 75/25
  Phase Separation: +
[1]; drug 20% w/w, polymer inherent viscosity 0.67 dL/g, Lactide/Glycolide 65/35
  Phase Separation: +
[1]; drug 20% w/w, polymer inherent viscosity 0.69 dL/g, Lactide/Glycolide 50/50 (first of two such lines, r12)
  Phase Separation: +
[1]; drug 20% w/w, polymer inherent viscosity 0.69 dL/g, Lactide/Glycolide 50/50 (second of two such lines, r13)
  Phase Separation: +
[1]; drug 20% w/w, polymer inherent viscosity 0.76-0.94 dL/g, Lactide/Glycolide 50/50
  Phase Separation: +
[1]; drug 20% w/w, polymer inherent viscosity 0.87 dL/g, Lactide/Glycolide 50/50
  Phase Separation: +
[1]; drug 20% w/w, polymer inherent viscosity 0.95-1.20 dL/g, Lactide/Glycolide 50/50
  Phase Separation: +
[1]; drug 20% w/w, polymer inherent viscosity 1.15 dL/g, Lactide/Glycolide 50/50
  Phase Separation: +
[1]; drug 20% w/w, polymer inherent viscosity 1.24 dL/g, Lactide/Glycolide 50/50
  Phase Separation: +
PC-3 cells; PC-3, 72 h, PC3, 3 day
  IC50: 2.5 ± 0.05 ng/mL
  IC90: 6.31 ± 0.17 ng/mL
PC-3 cells; PC-3, 120 h, PC3, 5 day
  IC50: 1.6 ± 0.01 ng/mL
  IC90: 5 ± 0.07 ng/mL
PC-3 cells; PC-3, 168 h, PC3, 7 day
  IC50: 1.6 ± 0.01 ng/mL
  IC90: 4.2 ± 0.08 ng/mL
PC-3 cells; PC3, 3 day
  IC75: 3.8 ± 0.03 ng/mL
PC-3 cells; PC3, 5 day
  IC75: 2.5 ± 0.02 ng/mL
PC-3 cells; PC3, 7 day
  IC75: 2.5 ± 0.01 ng/mL
DU145 cells
  IC75: 1.9 ± 0.03 ng/mL
DU145 cells; Homo sapiens, DU-145, 120 h
  IC50: 1.5 ± 0.04 ng/mL
  IC90: 2.4 ± 0.02 ng/mL
